The source of these data is publication PMC11748689, “Pharmacological and structural understanding of the Trypanosoma cruzi proteasome provides key insights for developing site-specific inhibitors” (The Journal of Biological Chemistry, 2024).

Test [1] has as its target native T. cruzi proteasome (caspase-like activity, β1) (Trypanosoma cruzi, UniProt V5BHX1). Put plainly: Caspase-like activity assay (Proteasome-Glo), native T. cruzi proteasome. Type of test: biochemical. The following applies: mean ± SD, N = 3; read-out: pIC50, Caspase Assay, Native (converted). On the procedure:
Chymotrypsin-, trypsin-, and caspase-like activity assays were performed using a commercially available Proteasome-Glo 3-substrate system assay kit (catalog number G8532) (Promega Corporation) according to the manufacturers protocols and as previously described ([24]).
Prior to running assays, Proteasome-Glo buffer was used to reconstitute the luciferin detection reagent (containing a recombinant thermostable luciferase enzyme). The resuspended luciferin detection reagent was then mixed with Proteasome-Glo chymotrypsin-, trypsin- or caspase-like substrates (either 40 μM suc-Leu-Leu-Val-Tyr-aminoluciferin, 30 μM Z-Leu-Arg-Arg-aminoluciferin (Z is benzyloxycarbonyl) or 40 μM Z-Nle-Pro-Nle-Asp-aminoluciferin respectively (these concentrations represent 2x final assay concentrations)). These substrate mixtures were allowed to incubate at room temperature for 60 min prior to use to allow the removal of any contaminating free aminoluciferin.
When proteasome inhibitors were to be screened in the chymotrypsin, trypsin, and caspase assays, test compounds were dispensed into assay wells using an ECHO 550 acoustic dispenser (Labcyte) (final DMSO concentration 1%). Compounds were tested in either a 10-point concentration series (30 μM top final assay concentration, 1 in 3 dilution series) or a 12-point concentration series (30 μM top final assay concentration, 1 in 2.5 dilution series).
Proteasome assays were then performed as described above using Promega Proteasome-Glo 3-substrate system assay kit. […] Diluted proteasome (4 μl) was added to assay plates using an electronic multichannel pipette (Integra Biosciences Ltd) and the proteasome incubated with compound for 60 min at room temperature.
Following the 60 min incubation of proteasome and compounds, assays were initiated with the addition of 4 μl of a substrate mix (containing substrate and the luciferin detection reagent) using an electronic multichannel pipette. Final assay concentrations of substrates used were either 20 μM Suc-Leu-Leu-Val-Tyr-aminoluciferin, 15 μM Z-Leu-Arg-Arg-aminoluciferin, or 20 μM Z-Nle-Pro-Nle-Asp-aminoluciferin for chymotrypsin-, trypsin-, or caspase-like activity, respectively. Following a further 60 min assay incubation, luminescence was read using an EnVision 2102 Multilabel Reader (PerkinElmer, Inc) with 0.2 s per well reading time.
All data processing was performed using Microsoft Excel for Microsoft 365 software.
Nonlinear dose-response curve fitting was carried out using the Microsoft Excel add-in, XLfit (IDBS). Percentage inhibition data were either fitted to a standard 4-parameter logistic fit model (XLfit model 205; Equation 2) or a biphasic model (either XLfit model 300; Equation 3 or a custom biphasic model; Equation 4 (used in cases where the top and/or bottom parameters deviated from 100%/0% inhibition)).(2) y=A+(B−A)/1+(C/x)^D Where A = % inhibition at bottom, B = % inhibition at top, C = IC50, D = slope, x = inhibitor concentration and y = % inhibition.(3) y=(A/(1+10^(C−log(x))∗B))+((100−A)/(1+10^(D−log(x))∗B)) With A = % inhibition at midplateau, B = slope, C = log(IC50^A), D = log(IC50^B)).
All IC50 data generated were converted to pIC50 using Equation 5.

Test [2] addresses human proteasome (chymotrypsin activity) (Homo sapiens, UniProt P28074). Description: Human proteasome chymotrypsin activity assay. The format is biochemical. As to conditions: dose response curve, n = 2 (Fig. S7). The protocol: Human proteasome assays were carried out as described in ([42]).

Regarding `O=C(Nc1ccc(F)c(C(=O)NC2CC2)c1)c1ccc(COc2ccccc2)o1` [DDD02091966, N-(3-(cyclopropylcarbamoyl)-4-fluorophenyl)-5-(phenoxymethyl)furan-2-carboxamide], the IC50 in test [1] is greater than 30.2 µM. Moreover, the “inhibition of the human chymotrypsin activity” value in test [2] is given as “no inhibition”.

Take `O=C(Nc1ccc(F)c(-c2cn3nc(-c4ccccc4)cnc3n2)c1)N1CCCC1` [DDD01012248]: in test [1], the IC50 was greater than 30.2 µM.
